According to patent US20030235577A1, “Methods and compositions for preventing and treating microbial infections” (priority 2002, published 2003):

Legend:
S. aureus [1] = experiment: Peritonitis model, peptide injected intraperitoneally after S. aureus; type: in vivo, C57/B16 mice; details: 72 hour time point, peptide 1 mg intraperitoneally; for survival: S. aureus 6×10^7 CFU
Description: Bacterial preparation: Staphylococcus aureus a clinical isolate was grown in tryptic soy broth for 18 hours at 37° C. An aliquot was placed in fresh media and grown until mid-log phase of growth. S. aureus was centrifuged and washed in sterile PBS and diluted. Bacteria concentration of O.D.540 of 0.9, corresponding to a concentration of 6×10^7 CFU/ml was used for inoculation.
Peptide preparation: Murine MMP-12 C-terminal peptide […] (SEQ ID NO:37; 333-352) and Human MMP-12 C-terminal peptide […] (SEQ ID NO:36; 341-359) and a human MMP-12 peptide with a single nucleotide polymorphism: […] (SEQ ID NO:55) were solubilized in sterile H2O at a concentration of 4 mg/ml.
Peritonitis model: C57/B16 mice received intraperitoneal injection of bacteria in a total volume of 1 ml (6×10^7 CFU). Peptides were intraperitoneally injected immediately after at a dose of 1 mg. […] The control mice received the same intraperitoneal injection of bacteria as in the test groups and then received an injection of vehicle with no peptide.

S aureus = experiment: Dose response of S. aureus to MMP-12 C-terminal peptides; type: cell-based, Staphylococcus aureus; details: various concentrations of peptide, 100 minutes
Description: Dose response: samples of S aureus were incubated with various concentrations of murine peptide (SEQ ID NO: 37), human peptide (SEQ ID NO: 36) and Human SNP peptide (SEQ ID NO:55). The human SNP peptide (SEQ ID NO:55) has a single nucleotide change from the sequence of SEQ ID NO 36. The peptide SEQ ID NO:36 has the amino acid sequence: […] and the peptide SEQ ID NO:55 has the amino acid sequence […]. The amount of bacteria remaining at various the various concentrations was determined for each group of a 100 minute time course.

S. aureus [2] = experiment: In vitro antimicrobial activity, co-incubation with S. aureus in 5% LB and CFU count; type: cell-based, Staphylococcus aureus; details: S. aureus, 5% LB culture, similar doses and conditions as full-length MMP-12
Description: S. aureus co-culture was incubated for 60 minutes with doses of MMP-12 C-terminal. Aliquots of cultures were diluted in PBS at 1:10 and 1:100 dilution. Dilutions were plated on LB agar plates for 18 hour incubation at 37° C. Controls consisted of column fractions that lacked MMP-12 carboxy terminal determined by immunoblotting.
MMP-12's mechanism of action as a host defense protein was investigated. To test for direct activity, functional full-length recombinant human MMP-12 was incubated with S. aureus in a 5% LB culture. […] MMP-12 enzymatic activity was not required for this antimicrobial effect.
Mid-log phase bacteria (10^5) were incubated in the absence or presence of purified MMP-12 C-terminal in a total volume of 100 μl of 10 mmol/L sodium phosphate containing 5% (vol/vol) TSB at 37° C. for 1 hour. Serial dilutions were then spread on agarose plates and the number of CFUs were determined after overnight incubation.

S. aureus [3] = experiment: Propidium iodide exclusion assay with fluorescence microscopy; type: cell-based, Staphylococcus aureus; details: 20 μg/ml, 30 minutes
Description: Recombinant segments of MMP-12 C-terminal were generated each covering one third of the C-terminal. Segments were then tested for anti-microbial activity against S. aureus. […] We hypothesized that in this region there was a secondary structure that had potential antimicrobial structure and properties consistent with the structure in cathelicidins. A predicted amphipathic and alpha helical structure was found in this region, which was conserved in the MMP-12 C-terminal domains from rabbit, rat, mouse and human. […] These studies have been repeated n>10 with similar results. FIG. 10 illustrates thae effect of MMP-12 C-terminal domain on cell survival.

ARNQVFLFKDDKYWLISNLR (listed as Homo sapiens) [Human MMP-12 peptide]
activity (clinical observation) (S. aureus [1]): normal activity
survival (S. aureus [1]): 100%
amount of S. aureus remaining (S aureus): zero S. aureus at most concentrations

ARNQVFLFKDDKYWLISSLR (listed as Homo sapiens) [Human SNP]
amount of S. aureus remaining (S aureus): zero S aureus at all concentrations

MMP-3: commercially available full length pro-MMP 3 [reference compound]
direct antimicrobial activity (S. aureus [2]): did not demonstrate this direct antimicrobial activity

MMP-7: commercially available full length pro-MMP 7 [reference compound]
direct antimicrobial activity (S. aureus [2]): did not demonstrate this direct antimicrobial activity

MMP-8: commercially available full length pro-MMP 8 [reference compound]
direct antimicrobial activity (S. aureus [2]): did not demonstrate this direct antimicrobial activity

SRDLMFIFRGRKFWALNGYD [MMP-13 peptide, reference compound]
bacterial death, uptake of membrane impermeant dye (S. aureus [3]): little dye uptake

SRNQLFLFKDEKYWLINNLV (listed as Mus musculus) [Murine MMP-12 peptide]
bacterial death, uptake of membrane impermeant dye (S. aureus [3]): clumping and increased uptake of membrane impermeant dye
activity (clinical observation) (S. aureus [1]): decrease activity
survival (S. aureus [1]): 75%
amount of S. aureus remaining (S aureus): higher at each concentration
